Results as given in the NIST ThermoML archive (doi:10.1016/j.jct.2016.02.009).

Experiment: molar heat capacity at constant pressure
Conditions: 101.33 kPa, Crystal 2, Small (less than 1 g) adiabatic calorimetry

CCCCCCCCCCCCCCCCn1cc[n+](C)c1.O=S(=O)([N-]S(=O)(=O)C(F)(F)F)C(F)(F)F
Conditions	molar heat capacity at constant pressure [J/K/mol]
5 K	3.58
5.4 K	4.43
5.7 K	5.11
6.07 K	6
6.51 K	7.15
7.03 K	8.58
7.55 K	10.13
8.08 K	11.79
8.61 K	13.56
9.15 K	15.43
9.69 K	17.38
10 K	18.51
10.24 K	19.41
10.84 K	21.73
11.53 K	24.47
12.23 K	27.33
12.92 K	30.31
13.62 K	33.36
14.33 K	36.54
15 K	39.66
15.04 K	39.85
15.87 K	43.67
16.8 K	48.11
17.74 K	52.48
18.67 K	56.86
19.62 K	61.3
20 K	63.15
20.86 K	67.23
22.4 K	74.52
23.97 K	81.98
25 K	86.78
25.53 K	89.27
27.13 K	96.62
28.72 K	103.9
30 K	109.7
30.29 K	111.1
32.02 K	118.8
33.92 K	126.8
35 K	131.4
35.82 K	134.8
37.72 K	142.5
39.62 K	150
40 K	151.7
41.61 K	158
43.71 K	166.2
45 K	171.3
45.8 K	174.3
47.91 K	182.4
50 K	190
50.02 K	190.2
52.13 K	197.8
54.23 K	205.2
56.35 K	212.4
58.48 K	219.5
60 K	224.6
60.6 K	226.5
62.72 K	233.3
64.85 K	240.1
66.98 K	246.6
69.1 K	253.2
70 K	255.9
71.33 K	259.9
73.67 K	266.6
76.02 K	273.4
78.38 K	280
80 K	284.5
80.57 K	286.3
80.73 K	286.6
82.48 K	291.2
83.09 K	292.8
84.4 K	296.1
86.33 K	301.2
88.27 K	306.3
90 K	310.8
90.22 K	311.2
92.18 K	316.2
94.15 K	321.1
96.13 K	326.1
98.11 K	331
100 K	335.5
100.1 K	335.8
102.15 K	340.8
104.27 K	345.7
106.4 K	350.6
108.54 K	355.4
110 K	358.8
110.68 K	360.3
112.83 K	365
114.99 K	369.8
117.15 K	374.5
119.31 K	379.2
120 K	380.5
121.48 K	383.7
123.65 K	388.2
125.82 K	392.8
128 K	397.3
130 K	401.4
130.17 K	401.7
132.35 K	406.2
134.53 K	410.6
136.71 K	415
138.9 K	419.3
140 K	421.7
141.08 K	423.7
143.27 K	428.1
145.46 K	432.5
147.65 K	436.9
149.84 K	441.2
150 K	441.5
152.03 K	445.6
154.22 K	449.8
156.4 K	454.1
158.59 K	458.5
160 K	461.2
160.78 K	462.8
162.97 K	467.2
165.16 K	471.4
167.34 K	475.7
169.53 K	479.8
170 K	480.8
171.71 K	484.1
173.9 K	488.4
176.08 K	492.8
178.26 K	497.1
180 K	500.5
180.45 K	501.5
182.63 K	505.9
184.82 K	510.1
187 K	514.3
189.17 K	518.6
190 K	520.4
191.35 K	523.1
193.52 K	527.5
195.69 K	531.7
197.86 K	536.3
200 K	540.8
200.02 K	540.9
202.25 K	545.6
204.54 K	550.5
206.82 K	555.5
209.11 K	560.4
210 K	562.3
211.39 K	565.4
213.67 K	570.5
215.95 K	575.6
218.21 K	580.9
220 K	585
220.48 K	586.3
222.74 K	591.8
225 K	597.1
227.25 K	602.4
229.5 K	607.7
230 K	609.3
231.74 K	613.5
233.97 K	619.4
236.21 K	625.3
238.43 K	631.2
